Measured values from the NIST ThermoML archive (doi:10.1021/acs.jced.8b00157).

Test: an = ratio of the nth substance listed
Settings: 100 kPa, Liquid, Buoyancy - hydrostatic balance

[F][Al]([F])[F] [aluminum fluoride] + [F-].[K+]
mass density [kg/m3]
Settings | a2 = 1.3 | a2 = 1.5
1091.2 K | 1750 | –
1091.6 K | – | 1772
1091.7 K | 1750 | –
1092 K | – | 1772
1092.2 K | 1749 | –
1092.3 K | 1749 | 1772
1092.5 K | 1748 | –
1092.6 K | 1748 | –
1092.7 K | – | 1772
1093.2 K | – | 1771
1093.5 K | 1747 | 1771
1093.8 K | 1748 | –
1093.9 K | – | 1771
1094.2 K | 1747 | –
1094.3 K | – | 1771
1094.7 K | – | 1770
1094.8 K | 1747 | –
1094.9 K | 1747 | –
1095 K | 1746 | –
1095.1 K | – | 1770
1095.3 K | 1746 | –
1095.5 K | 1745 | 1770
1095.8 K | – | 1769
1096.1 K | 1745 | –
1096.2 K | 1745 | –
1096.3 K | – | 1769
1096.4 K | 1744 | –
1096.6 K | – | 1769
1096.7 K | 1744 | –
1097 K | – | 1769
1097.1 K | 1744 | –
1097.2 K | 1744 | –
1097.4 K | – | 1768
1097.6 K | 1744 | –
1097.9 K | – | 1768
1098.1 K | 1743 | 1767
1098.3 K | 1743 | –
1098.5 K | – | 1767
1098.6 K | 1743 | –
1098.8 K | 1742 | –
1098.9 K | 1742 | –
1099 K | – | 1767
1099.4 K | – | 1767
1099.5 K | 1742 | –
1099.6 K | 1742 | –
1099.8 K | – | 1766
1100.1 K | 1741 | –
1100.2 K | – | 1766
1100.4 K | 1741 | –
1100.6 K | 1741 | 1766
1100.9 K | 1740 | 1766
1101 K | 1741 | –
1101.2 K | 1740 | 1765
1101.7 K | 1740 | 1765
1101.8 K | 1739 | –
1101.9 K | 1739 | –
1102.1 K | – | 1765
1102.4 K | – | 1765
1102.5 K | 1739 | –
1102.9 K | – | 1764
1103.4 K | – | 1764
1103.6 K | – | 1763
1104.1 K | – | 1763
1104.5 K | – | 1763
1104.8 K | – | 1763
1105.2 K | – | 1762
1105.7 K | – | 1762
1105.9 K | – | 1762
1106.4 K | – | 1762
1106.7 K | – | 1761
1107.3 K | – | 1761
1107.7 K | – | 1761
1108 K | – | 1761
1108.5 K | – | 1760
1108.8 K | – | 1760
1109.3 K | – | 1759
1109.7 K | – | 1759
1110.1 K | – | 1759
1110.5 K | – | 1759
1111 K | – | 1758
1111.3 K | – | 1758
1111.7 K | – | 1758
1112.1 K | – | 1757
1112.6 K | – | 1757
1112.9 K | – | 1757
1113.2 K | – | 1757
1113.7 K | – | 1756
1114.2 K | – | 1756
1114.6 K | – | 1755
1114.9 K | – | 1755
1115.3 K | – | 1755
1115.7 K | – | 1754
1116.1 K | – | 1754
1116.5 K | – | 1754
1117 K | – | 1754
1117.4 K | – | 1753
1117.8 K | – | 1753
1118.3 K | – | 1753
1118.7 K | – | 1752
1119.2 K | – | 1752
1119.4 K | – | 1751
1119.9 K | – | 1751
1120.3 K | – | 1751
1120.6 K | – | 1751
1121.2 K | – | 1750
1121.5 K | – | 1750
1122 K | – | 1750
1122.4 K | – | 1750
1122.8 K | – | 1749
1123.3 K | – | 1749
